Patent publication US20250325690A1, “ANTIBODY-DRUG CONJUGATE WITH TWO TYPES OF DRUG-LINKER CONJUGATES ON SINGLE ANTIBODY” (priority 2022, published 2025)
“Also recorded” adds a separate entry of the source. Where two headings read alike, the source gives them in different places.

What was measured:
[1] = test system: FaDu cell line not expressing ABCG2; assay: In vitro cell viability test, FaDu; settings: FIG. 28, 3 days
DDX5 = molecular target: T1, DDX5 (Homo sapiens, UniProt P17844); type: cell-based; settings: FaDu and A549, 0, 10, 100 nM, 24 hours
T1 construct: endogenous in cells; host or cells: FaDu and A549 cell lines
T1 sequence (P17844 whole entry): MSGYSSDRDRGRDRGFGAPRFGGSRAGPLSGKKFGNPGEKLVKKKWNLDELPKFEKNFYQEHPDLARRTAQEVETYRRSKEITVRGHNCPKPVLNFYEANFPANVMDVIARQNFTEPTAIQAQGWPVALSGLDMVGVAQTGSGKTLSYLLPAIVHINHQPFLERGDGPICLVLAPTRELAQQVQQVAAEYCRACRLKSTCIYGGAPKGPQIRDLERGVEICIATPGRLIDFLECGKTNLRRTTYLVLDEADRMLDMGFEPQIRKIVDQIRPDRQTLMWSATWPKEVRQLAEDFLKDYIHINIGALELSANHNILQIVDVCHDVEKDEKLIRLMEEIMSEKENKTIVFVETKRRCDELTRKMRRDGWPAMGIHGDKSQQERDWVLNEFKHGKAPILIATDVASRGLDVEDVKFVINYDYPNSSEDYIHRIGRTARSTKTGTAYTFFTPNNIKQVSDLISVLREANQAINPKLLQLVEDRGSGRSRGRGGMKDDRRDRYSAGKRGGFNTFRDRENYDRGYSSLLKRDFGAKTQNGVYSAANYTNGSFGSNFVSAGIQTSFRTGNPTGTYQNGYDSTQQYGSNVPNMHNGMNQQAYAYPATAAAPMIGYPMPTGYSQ

[2] = human, in vivo; cited from earlier work
[3] = test system: survivin, cIAP2, Mcl-1, XIAP; assay: Western blotting of anti-apoptotic protein expression; settings: HCT-8 and FaDu cell lines; FIG. 17
DNA topoisomerase-1 = molecular target: T2, DNA topoisomerase-1 (Homo sapiens, UniProt P11387); settings: cited from earlier work
T2 sequence (P11387 1-765): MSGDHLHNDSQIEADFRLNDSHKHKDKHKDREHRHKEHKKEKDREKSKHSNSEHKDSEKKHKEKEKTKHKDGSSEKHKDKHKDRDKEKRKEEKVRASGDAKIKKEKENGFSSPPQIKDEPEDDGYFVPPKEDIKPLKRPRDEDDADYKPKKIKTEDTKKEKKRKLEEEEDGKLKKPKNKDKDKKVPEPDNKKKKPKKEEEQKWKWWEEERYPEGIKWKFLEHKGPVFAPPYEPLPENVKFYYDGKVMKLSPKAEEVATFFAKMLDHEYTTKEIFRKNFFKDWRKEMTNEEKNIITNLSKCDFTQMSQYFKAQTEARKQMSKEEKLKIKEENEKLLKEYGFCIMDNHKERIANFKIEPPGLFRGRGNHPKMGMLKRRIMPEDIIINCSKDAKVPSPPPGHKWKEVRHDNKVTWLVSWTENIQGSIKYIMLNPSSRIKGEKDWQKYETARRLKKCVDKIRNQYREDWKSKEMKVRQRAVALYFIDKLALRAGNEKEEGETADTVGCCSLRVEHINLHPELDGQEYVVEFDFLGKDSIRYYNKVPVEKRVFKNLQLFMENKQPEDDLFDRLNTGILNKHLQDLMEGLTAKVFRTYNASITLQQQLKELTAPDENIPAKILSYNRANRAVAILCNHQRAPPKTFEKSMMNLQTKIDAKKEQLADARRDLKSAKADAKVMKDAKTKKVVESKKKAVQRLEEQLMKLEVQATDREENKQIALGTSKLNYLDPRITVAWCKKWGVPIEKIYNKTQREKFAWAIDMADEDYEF

cancer cells [4] = settings: cited from earlier work
cancer cells [5] = assay: Cytotoxicity in cancer cell lines; type: cell-based; settings: 140 cell lines from various cancer types, most cancer cells
GLP-toxicity tests = type: in vivo; settings: mice and beagle dogs
[6] = test system: cancer cell line xenograft models; assay: Cancer cell line xenograft models, FL118 versus SN-38; type: in vivo; settings: same amount as SN-38
ABCG2 transporter = molecular target: T3, ABCG2 transporter (Homo sapiens, UniProt Q9UNQ0); assay: Effect of ABCG2 transporter on drug; type: cell-based
T3 sequence (Q9UNQ0 1-655): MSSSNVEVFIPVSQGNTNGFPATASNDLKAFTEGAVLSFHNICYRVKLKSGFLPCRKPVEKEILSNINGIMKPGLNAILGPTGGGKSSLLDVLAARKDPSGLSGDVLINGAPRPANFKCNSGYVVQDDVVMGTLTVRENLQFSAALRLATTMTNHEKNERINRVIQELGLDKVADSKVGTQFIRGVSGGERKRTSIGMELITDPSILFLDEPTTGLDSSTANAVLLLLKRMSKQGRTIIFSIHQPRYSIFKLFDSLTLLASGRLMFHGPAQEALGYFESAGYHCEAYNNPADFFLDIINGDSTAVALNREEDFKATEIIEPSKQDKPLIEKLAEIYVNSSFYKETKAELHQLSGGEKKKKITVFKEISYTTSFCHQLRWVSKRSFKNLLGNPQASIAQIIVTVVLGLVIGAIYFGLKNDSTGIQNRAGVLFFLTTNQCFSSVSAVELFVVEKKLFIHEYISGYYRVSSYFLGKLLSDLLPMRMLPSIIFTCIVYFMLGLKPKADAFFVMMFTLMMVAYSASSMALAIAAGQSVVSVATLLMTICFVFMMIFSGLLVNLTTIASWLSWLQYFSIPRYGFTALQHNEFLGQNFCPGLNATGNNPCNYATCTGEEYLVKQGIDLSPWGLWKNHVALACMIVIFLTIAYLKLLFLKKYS

**Q.** With `CC[C@@]1(O)C(=O)OCc2c1cc1n(c2=O)Cc2c-1nc1cc3c(c4c1c2[C@@H](NC(=O)[C@@H](O)C1CC1)CC4)OCO3` [PBX-7024] as the compound, how does the apoptotic efficacy [1] read?
**A.** potent apoptotic efficacy

**Q.** Which DDX5 degradation (DDX5) does the source give for `CC[C@@]1(O)C(=O)OCc2c1cc1n(c2=O)Cc2c-1nc1cc3c(c4c1c2[C@@H](NC(=O)[C@@H](C)O)CC4)OCO3` [PBX-7016] here?
**A.** degrading DDX5; also recorded: inhibits DDX5 in a concentration-dependent manner; also recorded: works better than PBX-7014

**Q.** What about the DDX5 degradation (DDX5; listed as 7016) of the same compound?
**A.** followed by 7011, 7016, and 7014 in this order

**Q.** Which results are given for Trodelvy?
**A.** diarrhea of all grades [2]: 65%; febrile neutropenia, patients [2]: 7%; neutropenia grade 3 or higher [2]: 47%; neutropenia of all grades [2]: 61%; neutropenic colitis, patients [2]: 0.5%

**Q.** With `CC[C@@]1(O)C(=O)OCc2c1cc1n(c2=O)Cc2c-1nc1cc(F)c(C)c3c1c2[C@@H](N)CC3` [exatecan] as the compound, how does the DDX5 degradation (DDX5) read?
**A.** exhibits a MoA that degrades the DDX5 protein

**Q.** And the “downregulating a tumor protein compared to SN-38” value [3]?
**A.** better effect in downregulating a tumor protein

**Q.** Which results are given for `CC[C@@]1(O)C(=O)OCc2c1cc1n(c2=O)Cc2c-1nc1cc(F)c(C)c3c1c2[C@@H](NC(=O)CO)CC3` [Dxd]?
**A.** DDX5 degradation (DDX5): exhibits a MoA that degrades the DDX5 protein; IC50 (DNA topoisomerase-1): 310 nM; cytotoxicity / activity in cancer cells relative to SN-38 (cancer cells [4]): about 10 times

**Q.** Which DDX5 degradation (DDX5) does the source give for `CC[C@@]1(O)C(=O)OCc2c1cc1n(c2=O)Cc2c-1nc1cc3c(c4c1c2[C@@H](NC(=O)CO)CC4)OCO3` [PBX-7014] here?
**A.** degrading DDX5

**Q.** What about the DDX5 degradation (DDX5; listed as 7014) of the same compound?
**A.** followed by 7011, 7016, and 7014 in this order

**Q.** Which DDX5 degradation (DDX5) does the source give for `CC[C@@]1(O)C(=O)OCc2c1cc1n(c2=O)Cc2c-1nc1cc3c(c4c1c2[C@@H](N)CC4)OCO3` (single isomer, unassigned) [PBX-7011] here?
**A.** degrading DDX5

**Q.** What about the DDX5 degradation (DDX5; listed as 7011) of the same compound?
**A.** followed by 7011, 7016, and 7014 in this order

**Q.** With `CC[C@@]1(O)C(=O)OCc2c1cc1n(c2=O)Cc2cc3cc4c(cc3nc2-1)OCO4` [FL118] as the compound, how does the DDX5 degradation (DDX5) read?
**A.** superior to other substances

**Q.** What about the IC50 (cancer cells [5]) of the same compound?
**A.** < 100 nM

**Q.** And the safety (GLP-toxicity tests)?
**A.** excellent safety

**Q.** And the “efficacy compared to SN-38” value [6]?
**A.** superior efficiency compared to SN-38; also recorded: strong tumor regression efficacy compared to SN-38

**Q.** And the “effect of ABCG2 transporter” value (ABCG2 transporter)?
**A.** not affected by the ABCG2 transporter

**Q.** What about the “downregulating a tumor protein compared to SN-38” value [3] of the same compound?
**A.** better effect in downregulating a tumor protein
